{
  "source": "patent US11382918B2",
  "about": "“Methods for treating Huntington's Disease” (PTC Therapeutics, Inc., priority 2017, dated 2022)",
  "note": "Counter-ions that a name gives are not always drawn.",
  "data": [
    {"tested_on": "Endogenous Huntingtin Protein (HTT)", "experiment": "Endogenous Huntingtin Protein Assay (ELISA-based MSD electrochemiluminescence)", "type": "cell-based", "settings": "Table 1", "method": "Compounds of Formula (I) were tested using the Meso Scale Discovery (MSD) Assay provided in International Application No. PCT/US2016/066042, filed on Dec. 11, 2016 and claiming priority to U.S. Provisional Application 62/265,652 filed on Dec. 10, 2015, published as International Publication No. WO 2017/100726 on Jun. 15, 2017, the entire contents of which are incorporated herein by reference.\nThe Endogenous Huntingtin Protein assay used in Example 1 was developed using the ELISA-based MSD electrochemiluminescence assay platform.\nEndogenous Huntingtin Protein Assay\nMeso Scale Discovery (MSD) 96-well or 384-well plates were coated overnight at 4° C. with MW1 (expanded polyglutamine) or MAB2166 monoclonal antibody (for capture) at a concentration of 1 μg/mL in PBS (30 μL per well). Plates were then washed three times with 300 µL wash buffer (0.05% Tween-20 in PBS) and blocked (100 μL blocking buffer; 5% BSA in PBS) for 4-5 hours at room temperature with rotational shaking and then washed three times with wash buffer.\nSamples (25 μL) were transferred to the antibody-coated MSD plate and incubated overnight at 4° C. After removal of the lysates, the plate was washed three times with wash buffer, and 25 μL of #5656S (Cell signaling; rabbit monoclonal) secondary antibody (diluted to 0.25 μg/mL in 0.05% Tween-20 in blocking buffer) was added to each well and incubated with shaking for 1 Hour at room temperature. Following incubation with the secondary antibody, the wells were rinsed with wash buffer after which 25 μL of goat anti-rabbit SULFO TAG secondary detection antibody (required aspect of the MSD system) (diluted to 0.25 μg/mL in 0.05% Tween-20 in blocking buffer) was added to each well and incubated with shaking for 1 hour at room temperature. After rinsing three times with wash buffer, 150 μL of read buffer T with surfactant (MSD) were added to each empty well, and the plate was imaged on a SI 6000 imager (MSD) according to manufacturers' instructions provided for 96- or 384-well plates.", "units": {"IC50": "nM"}, "values": [
      {"smiles": "CN1CCN(c2cn3c(=O)cc(-c4ccc5nn(C)cc5c4)nc3cn2)CC1", "note": "[compound 589, 2-(2-methyl-2H-indazol-5-yl)-7-(4-methylpiperazin-1-yl)-4H-pyrazino[1,2-a]pyrimidin-4-one]", "IC50": "3000 to 33000"},
      {"smiles": "Cc1cn2cc(-c3cc(=O)n4cc(C5CCNCC5)ncc4n3)cc(Cl)c2n1", "note": "[compound 587, 2-(8-chloro-2-methylimidazo[1,2-a]pyridin-6-yl)-7-(piperidin-4-yl)-4H-pyrazino[1,2-a]pyrimidin-4-one]", "IC50": "100 to 500"},
      {"smiles": "CCN1CC=C(c2cn3c(=O)cc(-c4ccc5c(cnn5C)c4)nc3cn2)CC1", "note": "[compound 507, 7-(1-ethyl-1,2,3,6-tetrahydropyridin-4-yl)-2-(1-methyl-1H-indazol-5-yl)-4H-pyrazino[1,2-a]pyrimidin-4-one]", "IC50": "3000 to 33000"},
      {"smiles": "Cc1cc(-c2cc(=O)n3cc(C4=CCNCC4)ccc3n2)nc2cn(C)nc12", "note": "[compound 863, 2-(2,7-dimethyl-2H-pyrazolo[4,3-b]pyridin-5-yl)-7-(1,2,3,6-tetrahydropyridin-4-yl)-4H-pyrido[1,2-a]pyrimidin-4-one hydrochloride (1:2)]", "IC50": "1000 to 3000"},
      {"smiles": "CCc1nc(C)cn2nc(-c3cc(=O)n4cc(N5CCN(CCCF)CC5)ccc4n3)cc12", "note": "[compound 665, 2-(4-ethyl-6-methylpyrazolo[1,5-a]pyrazin-2-yl)-7-[4-(3-fluoropropyl)piperazin-1-yl]-4H-pyrido[1,2-a]pyrimidin-4-one]", "IC50": "3000 to 33000"},
      {"smiles": "CCc1nc(C)cn2nc(-c3cc(=O)n4cc(C5CCN(CCF)CC5)ccc4n3)cc12", "note": "[compound 668, 2-(4-ethyl-6-methylpyrazolo[1,5-a]pyrazin-2-yl)-7-[1-(2-fluoroethyl)piperidin-4-yl]-4H-pyrido[1,2-a]pyrimidin-4-one]", "IC50": "500 to 1000"},
      {"smiles": "CCN1CCC(c2ccc3nc(-c4ccc5nn(C)cc5c4)cc(=O)n3c2)CC1", "note": "[compound 612, 7-(1-ethylpiperidin-4-yl)-2-(2-methyl-2H-indazol-5-yl)-4H-pyrido[1,2-a]pyrimidin-4-one]", "IC50": "1000 to 3000"},
      {"smiles": "Cc1cc(-c2cc(=O)n3cc(N4CCN(C)CC4)ccc3n2)cc2cn(C)nc12", "note": "[compound 768, 2-(2,7-dimethyl-2H-indazol-5-yl)-7-(4-methylpiperazin-1-yl)-4H-pyrido[1,2-a]pyrimidin-4-one]", "IC50": "1000 to 3000"},
      {"smiles": "Cc1cn2cc(-c3cc(=O)n4cc(N5CCN[C@H](C)C5)ccc4n3)cc(C(F)(F)F)c2n1", "note": "[compound 734, 7-[(3R)-3-methylpiperazin-1-yl]-2-[2-methyl-8-(trifluoromethyl)imidazo[1,2-a]pyridin-6-yl]-4H-pyrido[1,2-a]pyrimidin-4-one]", "IC50": "3000 to 33000"},
      {"smiles": "Cc1cn2cc(-c3cc(=O)n4cc(N5CCN(C)CC5)ccc4n3)cc(F)c2n1", "note": "[compound 269, 2-(8-fluoro-2-methylimidazo[1,2-a]pyridin-6-yl)-7-(4-methylpiperazin-1-yl)-4H-pyrido[1,2-a]pyrimidin-4-one]", "IC50": "500 to 1000"},
      {"smiles": "Cc1cn2nc(-c3cc(=O)n4cc(N5CCC(C)(N(C)C)CC5)ccc4n3)cc2c(C)n1", "note": "[compound 706, 7-[4-(dimethylamino)-4-methylpiperidin-1-yl]-2-(4,6-dimethylpyrazolo[1,5-a]pyrazin-2-yl)-4H-pyrido[1,2-a]pyrimidin-4-one]", "IC50": "3000 to 33000"},
      {"smiles": "CCN1CCN(c2cn3c(=O)cc(-c4ccc5nn(C)cc5c4)nc3cn2)CC1", "note": "[compound 590, 7-(4-ethylpiperazin-1-yl)-2-(2-methyl-2H-indazol-5-yl)-4H-pyrazino[1,2-a]pyrimidin-4-one]", "IC50": "3000 to 33000"},
      {"smiles": "Cn1cc2cc(-c3cc(=O)n4cc(C5CCNCC5)ncc4n3)ccc2n1", "note": "[compound 566, 2-(2-methyl-2H-indazol-5-yl)-7-(piperidin-4-yl)-4H-pyrazino[1,2-a]pyrimidin-4-one]", "IC50": "100 to 500"},
      {"smiles": "Cc1cn2nc(-c3cc(=O)n4cc(N5CCNCC5)ccc4n3)cc2c(C)n1", "note": "[compound 120, 2-(4,6-dimethylpyrazolo[1,5-a]pyrazin-2-yl)-7-(piperazin-1-yl)-4H-pyrido[1,2-a]pyrimidin-4-one]", "IC50": "1000 to 3000"},
      {"smiles": "Cc1cn2cc(-c3cc(=O)n4cc(C5CCNCC5)ccc4n3)cc(Cl)c2n1", "note": "[compound 516, 2-(8-chloro-2-methylimidazo[1,2-a]pyridin-6-yl)-7-(piperidin-4-yl)-4H-pyrido[1,2-a]pyrimidin-4-one]", "IC50": "< 100"},
      {"smiles": "Cc1cc(-c2cc(=O)n3cc(C4=CCNCC4)ccc3n2)nc2cnn(C)c12", "note": "[compound 860, 2-(1,7-dimethyl-1H-pyrazolo[4,3-b]pyridin-5-yl)-7-(1,2,3,6-tetrahydropyridin-4-yl)-4H-pyrido[1,2-a]pyrimidin-4-one hydrochloride (1:2)]", "IC50": "3000 to 33000"},
      {"smiles": "CCCc1nc(C)cn2nc(-c3cc(=O)n4cc(N5CCN[C@H](C)C5)ccc4n3)cc12", "note": "[compound 727, 7-[(3R)-3-methylpiperazin-1-yl]-2-(6-methyl-4-propylpyrazolo[1,5-a]pyrazin-2-yl)-4H-pyrido[1,2-a]pyrimidin-4-one]", "IC50": "3000 to 33000"},
      {"smiles": "Cn1cc2cc(-c3cc(=O)n4cc(C5=CCNCC5)ccc4n3)ccc2n1", "note": "[compound 474, 2-(2-methyl-2H-indazol-5-yl)-7-(1,2,3,6-tetrahydropyridin-4-yl)-4H-pyrido[1,2-a]pyrimidin-4-one]", "IC50": "500 to 1000"},
      {"smiles": "Cc1cn2nc(-c3cc(=O)n4cc(N5C[C@@H]6C[C@H]5CN6C)ccc4n3)cc2c(C)n1", "note": "[compound 400, 2-(4,6-dimethylpyrazolo[1,5-a]pyrazin-2-yl)-7-[(1S,4S)-5-methyl-2,5-diazabicyclo[2.2.1]hept-2-yl]-4H-pyrido[1,2-a]pyrimidin-4-one]", "IC50": "3000 to 33000"},
      {"smiles": "Cc1cn2nc(-c3cc(=O)n4cc(C5CCNCC5)ncc4n3)cc2c(C)n1", "note": "[compound 502, 2-(4,6-dimethylpyrazolo[1,5-a]pyrazin-2-yl)-7-(piperidin-4-yl)-4H-pyrazino[1,2-a]pyrimidin-4-one]", "IC50": "< 100"},
      {"smiles": "CCN1CCC(c2cn3c(=O)cc(-c4cc5c(C)nc(C)cn5n4)nc3cn2)CC1", "note": "[compound 504, 2-(4,6-dimethylpyrazolo[1,5-a]pyrazin-2-yl)-7-(1-ethylpiperidin-4-yl)-4H-pyrazino[1,2-a]pyrimidin-4-one]", "IC50": "100 to 500"},
      {"smiles": "CCN1CCC(c2ccc3nc(-c4cc(C)c5nn(C)cc5c4)cc(=O)n3c2)CC1", "note": "[compound 753, 2-(2,7-dimethyl-2H-indazol-5-yl)-7-(1-ethylpiperidin-4-yl)-4H-pyrido[1,2-a]pyrimidin-4-one]", "IC50": "100 to 500"},
      {"smiles": "Cc1cn2cc(-c3cc(=O)n4cc(C5CCN(C6CCC6)CC5)ncc4n3)ccc2n1", "note": "[compound 628, 7-(1-cyclobutylpiperidin-4-yl)-2-(2-methylimidazo[1,2-a]pyridin-6-yl)-4H-pyrazino[1,2-a]pyrimidin-4-one]", "IC50": "3000 to 33000"},
      {"smiles": "Cc1cn2cc(-c3cc(=O)n4cc(C5CCN(C)CC5)ncc4n3)cc(C)c2n1", "note": "[compound 592, 2-(2,8-dimethylimidazo[1,2-a]pyridin-6-yl)-7-(1-methylpiperidin-4-yl)-4H-pyrazino[1,2-a]pyrimidin-4-one]", "IC50": "3000 to 33000"},
      {"smiles": "Cc1cn2nc(-c3cc(=O)n4cc(N5CCN(C)[C@@H](C)C5)ccc4n3)cc2c(C)n1", "note": "[compound 258, 7-[(3S)-3,4-dimethylpiperazin-1-yl]-2-(4,6-dimethylpyrazolo[1,5-a]pyrazin-2-yl)-4H-pyrido[1,2-a]pyrimidin-4-one]", "IC50": "3000 to 33000"},
      {"smiles": "CCN1CCC(c2cn3c(=O)cc(-c4cc(F)c5nn(C)cc5c4)nc3c(C)n2)CC1", "note": "[compound 872, 7-(1-ethylpiperidin-4-yl)-2-(7-fluoro-2-methyl-2H-indazol-5-yl)-9-methyl-4H-pyrazino[1,2-a]pyrimidin-4-one]", "IC50": "< 100"},
      {"smiles": "Cn1cc(-c2cc(=O)n3cc(N4CCNCC4)ccc3n2)cn1", "note": "[compound 192, 2-(1-methyl-1H-pyrazol-4-yl)-7-(piperazin-1-yl)-4H-pyrido[1,2-a]pyrimidin-4-one]", "IC50": "3000 to 33000"},
      {"smiles": "Cc1cn2cc(-c3ccc4nc(C5CCN(C(C)C)CC5)cc(=O)n4c3)ccc2n1", "note": "[compound 461, 7-(2-methylimidazo[1,2-a]pyridin-6-yl)-2-[1-(propan-2-yl)piperidin-4-yl]-4H-pyrido[1,2-a]pyrimidin-4-one]", "IC50": "3000 to 33000"},
      {"smiles": "CCN1CC=C(c2ccc3nc(-c4ccc5nn(C)cc5c4)cc(=O)n3c2)CC1", "note": "[compound 477, 7-(1-ethyl-1,2,3,6-tetrahydropyridin-4-yl)-2-(2-methyl-2H-indazol-5-yl)-4H-pyrido[1,2-a]pyrimidin-4-one]", "IC50": "1000 to 3000"},
      {"smiles": "O=c1cc(-c2cnc3[nH]ccc3c2)nc2ccc(N3CCNCC3)cn12", "note": "[compound 128, 7-(piperazin-1-yl)-2-(1H-pyrrolo[2,3-b]pyridin-5-yl)-4H-pyrido[1,2-a]pyrimidin-4-one]", "IC50": "3000 to 33000"},
      {"smiles": "CCc1nc(C)cn2nc(-c3cc(=O)n4cc(N5C[C@@H](C)N[C@@H](C)C5)ccc4n3)cc12", "note": "[compound 633, 7-[(3R,5S)-3,5-dimethylpiperazin-1-yl]-2-(4-ethyl-6-methylpyrazolo[1,5-a]pyrazin-2-yl)-4H-pyrido[1,2-a]pyrimidin-4-one]", "IC50": "3000 to 33000"}
    ]}
  ]
}
